A short description of this test: Antagonist activity at CCR1 in human THP1 cells assessed as inhibition of CCL3-induced chemotaxis after 3 hrs.

For orientation: IC50 means the concentration at which inhibition is half-maximal.

For the molecule `O=C(Nc1ccc(C(F)(F)F)cc1)N1CCCC1c1nccn1Cc1ccc(Cl)cc1` (stereo not given) [2-(1-(4-chlorobenzyl)-1H-imidazol-2-yl)-N-(4-(trifluoromethyl)phenyl)pyrrolidine-1-carboxamide], the IC50 is 16 nM. In the case of `O=C(Nc1ccc(C(F)(F)F)cc1)N1CCC[C@@H]1c1ncnn1Cc1ccc(Cl)cc1` [(R)-2-(1-(4-chlorobenzyl)-1H-1,2,4-triazol-5-yl)-N-(4-(trifluoromethyl)phenyl)pyrrolidine-1-carboxamide], the IC50 was determined as 22 nM. As for `O=C(Nc1ccc(C(F)(F)F)cc1)N1CCC[C@@H]1c1nnnn1Cc1ccc(Cl)cc1` [(R)-2-(1-(4-chlorobenzyl)-1H-tetrazol-5-yl)-N-(4-(trifluoromethyl)phenyl)pyrrolidine-1-carboxamide], the IC50 is 6.5 nM.

As to `O=C(Nc1ccc(C(F)(F)F)cc1)N1CCC[C@@H]1c1nncn1Cc1ccc(Cl)cc1` [(R)-2-(4-(4-chlorobenzyl)-4H-1,2,4-triazol-3-yl)-N-(4-(trifluoromethyl)phenyl)pyrrolidine-1-carboxamide], the IC50 amounted to 4 nM. Consider `Cc1nnc([C@H]2CCCN2C(=O)Nc2ccc(C(F)(F)F)cc2)n1Cc1ccc(Cl)cc1` [(R)-2-(4-(4-chlorobenzyl)-5-methyl-4H-1,2,4-triazol-3-yl)-N-(4-(trifluoromethyl)phenyl)pyrrolidine-1-carboxamide], for which the IC50 came out at 2.9 nM.

These data come from BindingDB's records for doi:10.1016/j.bmcl.2010.07.082 (Ligand Pharmaceuticals, 2010).
